Laboratory results taken from US20210205329A1 (The University of North Carolina at Chapel Hill, priority 2018, published 2021).

Target: T1, TLR2/MD-2 interaction (Mus musculus, UniProt Q9QUN7)
T1 construct: endogenous in cells; host or cells: RAW264.7
Experiment: TLR2/MD-2 co-immunoprecipitation (negative control) in LPS-treated RAW264.7 cells
Format: cell-based
Settings: 1.0 μM; LPS 1 μg/ml; 24 hrs post-treatment
Procedure: Co-Immunoprecipitation Assay RAW264.7 cells [treated with LPS (1 μg/ml), 3α,5α-THP (1 μM) or pregnenolone (1 μM)] were exposed to chemical protein crosslinking (Poulopoulos et al, 2009) at 24 hrs post-treatment. Briefly, the cells were incubated (20 min on ice) with 1 mM of the cleavable, membrane-permeable crosslinker DSP (Thermo Fisher Scientific, Cat. #PG82081). Rat VTA homogenates were incubated (20 min on ice) with 200 μM of DSP. The crosslinker was quenched in 1 M Tris buffer (pH 7.5) (to a final concentration of 10-20 mM), and the material was centrifuged at 21,000×g for 15 min. Proteins from the cells were extracted with Pierce IP Lysis Buffer (Thermo Fisher Scientific, Cat. #87787) supplemented with protease and phosphatase inhibitor cocktails (Sigma). Proteins from the VTA were extracted with CelLytic MT (dialyzable mild detergent, bicine and 150 mM NaCl; Sigma Aldrich, St. Louis, Mo., USA, Cat. #C3228) supplemented with protease and phosphatase inhibitor cocktails (Sigma) according to the manufacturers instructions. […]

T1 sequence (Q9QUN7 25-784): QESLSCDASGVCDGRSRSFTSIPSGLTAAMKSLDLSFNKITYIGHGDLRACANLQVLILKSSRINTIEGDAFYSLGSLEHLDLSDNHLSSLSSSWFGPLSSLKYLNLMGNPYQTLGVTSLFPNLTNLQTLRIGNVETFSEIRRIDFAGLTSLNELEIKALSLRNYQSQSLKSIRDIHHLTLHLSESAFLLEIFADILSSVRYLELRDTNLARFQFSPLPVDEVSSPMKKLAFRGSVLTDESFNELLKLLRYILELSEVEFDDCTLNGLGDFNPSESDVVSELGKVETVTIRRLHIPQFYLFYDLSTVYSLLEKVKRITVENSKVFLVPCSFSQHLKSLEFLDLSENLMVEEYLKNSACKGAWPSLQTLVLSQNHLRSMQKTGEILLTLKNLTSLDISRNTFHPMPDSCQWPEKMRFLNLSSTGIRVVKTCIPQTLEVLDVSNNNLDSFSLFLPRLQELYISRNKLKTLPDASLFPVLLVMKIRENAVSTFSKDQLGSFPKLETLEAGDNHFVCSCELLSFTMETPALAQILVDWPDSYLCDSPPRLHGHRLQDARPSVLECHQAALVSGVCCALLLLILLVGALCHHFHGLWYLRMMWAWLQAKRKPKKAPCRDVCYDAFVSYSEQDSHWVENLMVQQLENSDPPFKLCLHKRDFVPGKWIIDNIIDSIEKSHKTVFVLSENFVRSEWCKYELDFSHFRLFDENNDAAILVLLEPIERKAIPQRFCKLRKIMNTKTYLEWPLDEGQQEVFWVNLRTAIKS

| Compound | TLR2/MD-2 co-immunoprecipitation |
| --- | --- |
| CC(=O)[C@H]1CC[C@H]2[C@@H]3CC[C@H]4C[C@H](O)CC[C@]4(C)[C@H]3CC[C@]12C [3α,5α-THP, (3α,5α)3-hydroxypregnan-20-one] | not altered |
| CC(=O)[C@H]1CC[C@H]2[C@@H]3CC=C4C[C@@H](O)CC[C@]4(C)[C@H]3CC[C@]12C [pregnenolone] | not altered |
